This is an account of results in patent US8129527B2, “Analogs of dehydrophenylahistins and their therapeutic use” (Nereus Pharmacuticals, Inc., priority 2006, dated 2012).

The subject of data set [1] is HT-29 human colon tumor. Briefly: HT-29 Human Colon Tumor Xenograft Model. It counts as in vivo. The note with it: for Chemotherapeutic Agent Result TGI %: CPT-11 alone 100 ip qwx3. On the procedure:
Selected novel compounds were administered as monotherapy via the intraperitoneal (i.p.) route at the doses indicated for the individual study; for the combination studies the selected reference chemotherapy agents were injected 15-30 min prior to the compound.
Saline dilutions are used to achieve the injection concentrations used for the reference compounds.
Animals were implanted subcutaneously (s.c.) by trocar with fragments of HT-29 tumors harvested from s.c. growing tumors in nude mice hosts. When the tumor size reached 5 mm×5 mm (about 10-17 days) the animals were matched into treatment and control groups. Mice were weighed twice weekly and tumor measurements were obtained using calipers twice weekly, starting on Day 1. The tumor measurements were converted to estimated mg tumor weight using the formula (W^2×L)/2. When the estimated tumor weight of the control group reached an average of 1000 mg the mice were weighed, sacrificed and the tumor removed.

Data set [2] has as its system Trichophyton rubrum. Briefly: Antifungal susceptibility testing, broth dilution (MIC/MFC). The format is cell-based. Conditions: Trichophyton species. The method, then:
Specifically, disclosed compounds were evaluated alongside commercially available microtubulin inhibitors as well as recognized antifungal agents.
Microorganisms against which these compounds were tested included: Candida albicans, Candida glabrata, Aspergillus fumigatus, Trichophyton rubrum, Trichophyton mentagrophytes, Epidermophyton floccosum. With the exception of Candida glabrata (one isolate), two isolates of each species were tested.
The minimum lethal concentration (MLC) was determined by plating […] from the MIC concentration and each concentration above the MIC. […] When a MIC was obtained, a minimum fungicidal concentration (MFC) was determined to assess the fungistatic/fungicidal nature of the compound.
A general note: Broth dilution looks for growth in wells or tubes with falling amounts of substance.

Where [3] appears, read: Colon HT-29 (3 studies), CPT-11 Days 1, 8, 15 alone.

SMILES strings stand for the structures. Marks after values point to notes of the source that are not given here.

By melting point is commonly meant the temperature, or range, at which the solid turns liquid. In turn, `CC(C)(C)c1ocnc1/C=c1\[nH]c(=O)/c(=C/c2cccc(Cl)c2)[nH]c1=O` gave a melting point of 171 to 173 °C.

For `Cc1ccccc1/C=c1\[nH]c(=O)/c(=C/c2ncoc2C(C)(C)C)[nH]c1=O`, the melting point lay in the range of 177 to 179 °C.

Molecule `CC(C)(C)c1ocnc1/C=c1\[nH]c(=O)/c(=C/c2ccc(Br)o2)[nH]c1=O` yielded a melting point of 184 to 186 °C.

Take `CC(C)(C)c1ocnc1/C=c1\[nH]c(=O)/c(=C/c2cccs2)[nH]c1=O`: the melting point lay in the range of 211 to 213 °C.

The molecule `Cc1oc(-c2ccccc2)cc1/C=c1\[nH]c(=O)/c(=C/c2ncoc2C(C)(C)C)[nH]c1=O` displayed a melting point of 218 to 220 °C.

In turn, `CC(C)(C)c1ocnc1/C=c1\[nH]c(=O)/c(=C/c2cc(F)cc3c2OCOC3)[nH]c1=O` had a melting point of 189 to 191 °C.

Turning to `CC(C)(C)c1ocnc1/C=c1\[nH]c(=O)/c(=C/c2cccc(C(=O)c3ccccc3)c2)[nH]c1=O`, the melting point lay in the range of 151 to 153 °C.

Consider `CCc1c2c(nc3ccc(OC(=O)N4CCC(N5CCCCC5)CC4)cc13)-c1cc3c(c(=O)n1C2)COC(=O)[C@]3(O)CC` [CPT-11, Irinotecan, reference compound], for which the “Tumor Growth Inhibition (%) Reference Agent” value in data set [1] (setting [3]) is 37 ± 3%. For the same molecule, in data set [1] (setting [3]), the “Tumor Regression (#/total) Reference Agent” value was 0/30. In addition, the figures for the “Chemotherapeutic Agent Result TGI %” value in data set [1] (Study 2139), in data set [1] (Study 2164) and in data set [1] (Study 2288) were 32.7%, 39* % and 36.5* %, respectively. Further, in data set [1] (study of KPU-2, KPU-35 and t-butyl-phenylahistin +/- CPT-11), the “TGI vs NCI criterion” value is on record as “did not reach this level”.

`CC(C)(C)c1ocnc1/C=c1\[nH]c(=O)/c(=C/c2cccc(F)c2)[nH]c1=O` [KPU-202, 3-{(Z)-1-[5-(tert-Butyl)-1H-4-oxazolyl]methylidene}-6-[(Z)-1-(3-fluorophenyl)methylidene]-2,5-piperazinedione] displayed a melting point of 143 to 145 °C.

The molecule `CC(C)(C)c1ocnc1/C=c1\[nH]c(=O)/c(=C/c2ccccc2Cl)[nH]c1=O` [KPU-204, 3-{(Z)-1-[5-(tert-Butyl)-1H-4-oxazolyl]methylidene}-6-[(Z)-1-(2-chlorophenyl)methlidene]-2,5-piperazinedione] gave a melting point of 166 to 168 °C.

For `COc1cc(/C=c2\[nH]c(=O)/c(=C/c3ncoc3C(C)(C)C)[nH]c2=O)cc(OC)c1` [KPU-208, 3-{(Z)-1-[5-(tert-Butyl)-1H-4-oxazolyl]methylidene}-6-[(Z)-1-(3,5-dimethoxyphenyl)methlidene]-2,5-piperazinedione], the melting point lay within 171 to 173 °C.

Molecule `CC(C)(C)c1ocnc1/C=c1\[nH]c(=O)/c(=C/c2cc(Cl)cc(Cl)c2)[nH]c1=O` [KPU-209, 3-{(Z)-1-[5-(tert-Butyl)-1H-4-oxazolyl]methylidene}-6-[(Z)-1-(3,5-dichlorophenyl)methlidene]-2,5-piperazinedione] displayed a melting point of 202 to 204 °C.

The molecule `CCOc1cccc(/C=c2\[nH]c(=O)/c(=C/c3ncoc3C(C)(C)C)[nH]c2=O)c1` [KPU-210, 3-{(Z)-1-[5-(tert-Butyl)-1H-4-oxazolyl]methylidene}-6-[(Z)-1-(3-ethoxyphenyl)methlidene]-2,5-piperazinedione] had a melting point of 124 to 126 °C.

The molecule `CC(C)(C)c1ocnc1/C=c1\[nH]c(=O)/c(=C/c2cccc(Br)c2)[nH]c1=O` [KPU-212, 3-{(Z)-1-[5-(tert-Butyl)-1H-4-oxazolyl]methylidene}-6-[(Z)-1-(3-bromophenyl)methlidene]-2,5-piperazinedione] registered a melting point of 170 to 172 °C.

In the case of `CC(C)(C)c1ocnc1/C=c1\[nH]c(=O)/c(=C/c2ccccc2F)[nH]c1=O` [KPU-214, 3-{(Z)-1-[5-(tert-Butyl)-1H-4-oxazolyl]methylidene}-6-[(Z)-1-(2-fluorophenyl)methlidene]-2,5-piperazinedione], the melting point lay in the range of 170 to 172 °C.

Molecule `CC(C)(C)c1ocnc1/C=c1\[nH]c(=O)/c(=C/c2ccccc2[N+](=O)[O-])[nH]c1=O` [KPU-215, 3-{(Z)-1-[5-(tert-Butyl)-1H-4-oxazolyl]methylidene}-6-[(Z)-1-(2-nitrophenyl)methlidene]-2,5-piperazinedione] returned a melting point of 149 to 151 °C.

`CC(C)(C)c1ocnc1/C=c1\[nH]c(=O)/c(=C/c2cccc(OC(F)(F)F)c2)[nH]c1=O` [KPU-216, 3-{(Z)-1-[5-(tert-Butyl)-1H-4-oxazolyl]methylidene}-6-[(Z)-1-(3-trifluoromethoxyphenyl)methlidene]-2,5-piperazinedione] yielded a melting point of 187 to 189 °C.

Turning to `CC(C)(C)c1ocnc1/C=c1\[nH]c(=O)/c(=C/c2ccoc2)[nH]c1=O` [KPU-217, 3-{(Z)-1-[5-(tert-Butyl)-1H-4-oxazolyl]methylidene}-6-[(Z)-1-(3-furyl)methlidene]-2,5-piperazinedione], the melting point fell in the range of 164 to 166 °C.

`Cc1ccsc1/C=c1\[nH]c(=O)/c(=C/c2ncoc2C(C)(C)C)[nH]c1=O` [KPU-219, 3-{(Z)-1-[5-(tert-Butyl)-1H-4-oxazolyl]methylidene}-6-[(Z)-1-(3-methyl-2-thienyl)methlidene]-2,5-piperazinedione] had a melting point of 142 to 144 °C.

Take `COc1ccccc1/C=c1\[nH]c(=O)/c(=C/c2ncoc2C(C)(C)C)[nH]c1=O` [KPU-224, 3-{(Z)-1-[5-(tert-Butyl)-1H-4-oxazolyl]methylidene}-6-[(Z)-1-(2-methoxyphenyl)methlidene]-2,5-piperazinedione]: the melting point is 151 to 153 °C.

Consider `CC(C)(C)c1ocnc1/C=c1\[nH]c(=O)/c(=C/c2ccsc2)[nH]c1=O` [KPU-226, 3-{(Z)-1-[5-(tert-Butyl)-1H-4-oxazolyl]methylidene}-6-[(Z)-1-(3-thienyl)methlidene]-2,5-piperazinedione], for which the melting point was in the range of 155 to 157 °C.

As for `CC(C)(C)c1ocnc1/C=c1\[nH]c(=O)/c(=C/CCc2ccccc2)[nH]c1=O` [KPU-228, 3-{(Z)-1-[5-(tert-Butyl)-1H-4-oxazolyl]methylidene}-6-[(Z)-1-(phenylpropyl)methlidene]-2,5-piperazinedione], the melting point is 180 to 182 °C.

`CCOc1ccc2ccccc2c1/C=c1\[nH]c(=O)/c(=C/c2ncoc2C(C)(C)C)[nH]c1=O` [KPU-229, 3-{(Z)-1-[5-(tert-Butyl)-1H-4-oxazolyl]methylidene}-6-[(Z)-1-(2-ethoxy-1-naphthyl)methlidene]-2,5-piperazinedione] registered a melting point of 201 to 203 °C.

With `COc1ccc2ccccc2c1/C=c1\[nH]c(=O)/c(=C/c2ncoc2C(C)(C)C)[nH]c1=O` [KPU-230, 3-{(Z)-1-[5-(tert-Butyl)-1H-4-oxazolyl]methylidene}-6-[(Z)-1-(2-methoxy-1-naphthyl)methlidene]-2,5-piperazinedione], the melting point was 234 to 236 °C.

`CC(C)(C)c1ocnc1/C=c1\[nH]c(=O)/c(=C/c2c3ccccc3cc3ccccc23)[nH]c1=O` [KPU-231, 3-{(Z)-1-[5-(tert-Butyl)-1H-4-oxazolyl]methylidene}-6-[(Z)-1-(9-anthryl)methlidene]-2,5-piperazinedione] returned a melting point of 274 to 276 °C.

`CC(C)(C)c1ocnc1/C=c1\[nH]c(=O)/c(=C/c2ccc(-c3cccs3)s2)[nH]c1=O` [KPU-234, 3-{(Z)-1-[5-(tert-Butyl)-1H-4-oxazolyl]methylidene}-6-[(Z)-1-(2,2′-bithienyl)methlidene]-2,5-piperazinedsione] gave a melting point of 212 to 214 °C.

For `CC(C)(C)c1ocnc1/C=c1\[nH]c(=O)/c(=C/c2cc(F)cc(F)c2F)[nH]c1=O` [KPU-235, 3-{(Z)-1-[5-(tert-Butyl)-1H-4-oxazolyl]methylidene}-6-[(Z)-1-(2,3,5-trifluorophenyl)methylidene]-2,5-piperazinedione], the melting point fell in the range of 185 to 187 °C.

`CC(C)(C)c1ocnc1/C=c1\[nH]c(=O)/c(=C/c2c(F)c(F)cc(F)c2F)[nH]c1=O` [KPU-236, 3-{(Z)-1-[5-(tert-Butyl)-1H-4-oxazolyl]methylidene}-6-[(Z)-1-(2,3,5,6-tetrafluorophenyl)methlidene]-2,5-piperazinedione] yielded a melting point of 194 to 196 °C.

In the case of `CC(C)(C)c1ocnc1/C=c1\[nH]c(=O)/c(=C/c2c(F)ccc(F)c2F)[nH]c1=O` [KPU-238, 3-{(Z)-1-[5-(tert-Butyl)-1H-4-oxazolyl]methylidene}-6-[(Z)-1-(2,36-trifluorophenyl)methlidene]-2,5-piperazinedione], the melting point lay within 212 to 214 °C.

In turn, `CC(C)(C)c1ocnc1/C=c1\[nH]c(=O)/c(=C/c2cn(S(=O)(=O)c3ccccc3)c3ccccc23)[nH]c1=O` [KPU-239, 3-{(Z)-1-[5-(tert-Butyl)-1H-4-oxazolyl]methylidene}-6-[(Z)-1-(phenylsulfonyl-3-indolyl)methlidene]-2,5-piperazinedione] gave a melting point of 133 to 135 °C.

Take `CC(C)(C)c1[nH]cnc1/C=C1\NC(=O)[C@H](Cc2ccccc2)NC1=O` [t-butylphenylahistin]: the “antifungal potency compared with griseofulvin” value in data set [2] is given as “equivalent in potency or in some cases more potent than griseofulvin”.
